Measurements taken from US20230271949A1, “GLP-1R MODULATING COMPOUNDS” (ASCLETIS BIOSCIENCE CO., LTD., priority 2022, published 2023).

Each molecule was assayed against GLP-1R (Homo sapiens, UniProt P43220) (assay: GLP-1R agonist cAMP stimulation assay (HTRF cAMP)). Settings: HEK293 cell line expressing GLP-1 target; HTRF cAMP agonist mode, 30 min at RT.
Format: cell-based
Method: cAMP Detection Kit, Cisbio (Cat #62AM4PEJ)
The cell line was constructed by WuXi.
2. Methods • a) The compound source plate preparation: • The reference 7-37 was diluted from 500 nM, 4-fold, 10 points in DMSO using Bravo. The compounds were diluted from […], 3-fold, 10 points in DMSO using Bravo. • b) Transfer of compounds: • 1) Use Echo transfer 100 nL cpd to the OptiPlate-384 plate. • 2) Spin the plates at 1000 rpm for 5 sec. • c) Cell suspension preparation: • 1) Thaw 1 vial of GLP-1 cells rapidly in 37° C. water bath. • 2) Transfer cell suspension into 10 ml of HBSS in a 15 ml conical tube. • 3) Centrifuge cells at 1000 rpm for 5 min at room temperature to pellet cells • 4) Gently aspirate supernatant being careful not to aspirate cells. • 5) Flick pellet to loose cells and re-suspend the cell pellet in 10 ml HBSS. Use a sterile pipette to pipette up and down to dislodge clumps. • 6) Count cells for concentration and to determine cell viability on Vi-cell. • 7) Re-suspend the GLP-1 cells in assay buffer at a concentration of 1.0×E5/mL cells. • 8) Transfer 10 μL GLP-1 cells to OptiPlate-384 plate. • d) HTRF cAMP Assay for agonist: • 1) Incubate the plate at RT for 30 min before adding the detection reagent. • 2) Add 10 μL each of detection reagent using Electric Multiple Channel Pipette. • 3) Cover the 384 plate with TopSeal-A film and incubate for 60 minutes at room temperature. • Remove the TopSeal-A, read on EnVision.
Create a new log (Inhibitor) vs response—Variable slope mode in Prism5.0 software, substitute the standard curve concentration (x) and its corresponding 665/615 data (y) into the model, convert the standard curve concentration (abscissa) by x=log(x), and make the standard curve through the converted xy.
Transform the data of 665/615 in the whole plate into a column of data, substitute it into y in the table of standard curve concentration (x) and 665/615 data (y), copy the x (interpolatedx) corresponding to automatic conversion by the software into a table, convert it into cAMP level by the formula x=10^(x), and reset the data into 384 distribution.
% Activity=(cAMP level−LC)/(HC−LC)*100% • Z factor: 1-3*(STD_HC+[…])/(HC-LC) • Assay Window: HC/LC • LC: The average cAMP level of adding DMSO wells • HC: The average cAMP level of adding the top concentration of reference compounds wells.
Create a new […] in Prism5.0 software, substitute the sample concentration (x) and its corresponding % Activity data (y) into the model, convert the standard curve concentration (abscissa) to x=log(x), and make the sample curve through the converted xy.

Sequence of GLP-1R (P43220 24-463): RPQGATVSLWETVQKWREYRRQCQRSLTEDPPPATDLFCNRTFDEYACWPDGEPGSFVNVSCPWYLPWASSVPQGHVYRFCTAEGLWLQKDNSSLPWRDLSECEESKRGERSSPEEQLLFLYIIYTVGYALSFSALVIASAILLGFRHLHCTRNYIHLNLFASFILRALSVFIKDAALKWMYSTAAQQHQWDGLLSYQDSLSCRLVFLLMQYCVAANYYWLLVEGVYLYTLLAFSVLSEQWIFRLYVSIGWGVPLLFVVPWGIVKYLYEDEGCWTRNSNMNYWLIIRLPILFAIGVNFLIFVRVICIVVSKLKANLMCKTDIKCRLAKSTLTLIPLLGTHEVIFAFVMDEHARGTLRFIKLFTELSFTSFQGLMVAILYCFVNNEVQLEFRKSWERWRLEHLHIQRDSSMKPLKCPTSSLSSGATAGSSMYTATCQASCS

Row | Structure (SMILES) | EC50 [nM]
1 | Cc1cc2c(C#N)ccc(COc3cccc(C4CCN(Cc5nc6cc(NC(=O)c7ccc8[nH]nc(C)c8c7)ccc6n5C[C@@H]5CCO5)CC4)n3)c2o1 [Compound 370] | 5.12
2 | O=C(Nc1cc(C(F)(F)F)c2[nH]ncc2c1)c1ccc2c(c1)nc(CN1CC=C(c3cccc(OCc4ccc(Cl)cc4F)n3)CC1)n2C[C@@H]1CCO1 [Compound 158] | 1.03
3 | COCCn1c(CN2CCC(c3cccc(OCc4ccc(Cl)cc4F)n3)CC2)nc2cc(C(=O)NCc3ccc(C#N)cc3)ccc21 [Compound 30] | 1380
4 | Cc1nc2cccc(COc3cccc(C4=CCN(Cc5nc6cc(C(=O)Nc7ccc8[nH]nc(C)c8c7)ccc6n5C[C@@H]5CCO5)CC4)n3)c2s1 [Compound 369] | 2.91
5 | Cc1n[nH]c2ccc(NC(=O)c3ccc4c(c3)nc(CN3CC=C(c5cccc6c5O[C@](C)(c5ccc(Cl)cc5F)O6)CC3)n4C[C@@H]3CCO3)cc12 [Compound 6] | 1.21
6 | O=C(NCC(=O)N1C[C@@H](O)[C@@H](O)C1)c1ccc2c(c1)nc(CN1CCC(c3cccc(OCc4ccc(Cl)cc4F)n3)CC1)n2C[C@@H]1CCO1 [Compound 67] | 5.89
7 | Cc1cc2cc(C(=O)Nc3ccc4c(c3)nc(CN3CC=C(c5cccc(OCc6ccc(Cl)cc6F)n5)CC3)n4C[C@@H]3CCO3)ccc2[nH]1 [Compound 394] | 21.1
8 | O=C(Nc1ccc2nc(CN3CC=C(c4cccc(OCc5ccc(Cl)cc5F)n4)CC3)n(C[C@@H]3CCO3)c2c1)c1ccc2c(c1)C1(CC1)C(=O)N2 [Compound 281] | 1.21
9 | Cc1cc(NC(=O)c2ccc3c(c2)nc(CN2CCC(c4cccc(OCc5ccc(Cl)cc5F)n4)CC2)n3C[C@@H]2CCO2)c(F)c2c(C)n[nH]c12 [Compound 121] | 4.23
10 | Cc1n[nH]c2ccc(NC(=O)c3ccc4c(c3)nc(CN3CCC(c5cccc(OCc6ccc(Cl)cc6F)n5)CC3)n4C[C@@H]3CCO3)c(F)c12 [Compound 122] | 3.21
11 | COCCn1c(CN2CCC(c3cccc(OCc4ccc(Cl)cc4F)n3)CC2)nc2cc(C(=O)NCc3ccc4[nH]c(=O)[nH]c4c3)ccc21 [Compound 38] | 17.7
12 | Cc1n[nH]c2c(Cl)cc(C(=O)Nc3ccc4c(c3)nc(CN3CC=C(c5cccc6c5OC(C)(c5ccc(Cl)cc5F)O6)CC3)n4CC3CCO3)cc12 (stereo not drawn) [Compound 308] | 3.12
13 | Cc1n[nH]c2cc(F)c(NC(=O)c3ccc4c(c3)nc(CN3CC=C(c5cccc(OCc6ccc(Cl)cc6F)n5)CC3)n4C[C@@H]3CCO3)cc12 [Compound 174] | 2.13
14 | COCCn1c(CN2CCC(c3cccc(OCc4ccc(Cl)cc4F)n3)CC2)nc2cc(C(=O)N[C@@H](C)c3ccc(O)cc3)ccc21 [Compound 40] | 36.5
15 | Cc1n[nH]c2ncc(NC(=O)c3ccc4c(c3)nc(CN3CC=C(c5cccc(OCc6ccc(Cl)cc6F)n5)CC3)n4C[C@@H]3CCO3)nc12 [Compound 190] | 9.27
16 | Cc1n[nH]c2cnc(C(=O)Nc3ccc4c(c3)nc(CN3CC=C(c5cccc(OCc6ccc(Cl)cc6F)n5)CC3)n4C[C@@H]3CCO3)nc12 [Compound 240] | 20.7
17 | Cc1cc(NC(=O)c2ccc3nc(CN4CC=C(c5cccc(OCc6ccc(Cl)cc6F)n5)CC4)n(C[C@@H]4CCO4)c3c2)cc2c1NC(=O)C21CC1 [Compound 267] | 1.99
18 | Cc1n[nH]c2c(C(F)(F)F)cc(NC(=O)c3ccc4c(c3)nc(CN3CC=C(c5cccc6c5OC(C)(c5ccc(Cl)cc5F)O6)CC3)n4CC3CCO3)cc12 (stereo not drawn) [Compound 295] | 2.19
19 | COCCn1c(CN2CCC(c3cccc(OCc4ccc(Cl)cc4F)n3)CC2)nc2cc(NC(=O)c3cc(C)c4[nH]nc(C)c4c3)ccc21 [Compound 260] | 1.03
20 | O=C(Nc1cc(F)c2c(c1)C1(CC1)C(=O)N2)c1ccc2nc(CN3CC=C(c4cccc(OCc5ccc(Cl)cc5F)n4)CC3)n(C[C@@H]3CCO3)c2c1 [Compound 271] | 0.97
21 | COCCn1c(CN2CCC(c3cccc(OCc4ccc(Cl)cc4F)n3)CC2)nc2cc(C(=O)NCCc3cccc(O)c3)ccc21 [Compound 19] | 176
22 | COCCn1c(CN2CCC(c3cccc(OCc4ccc(Cl)cc4F)n3)CC2)nc2cc(C(=O)NCCc3ccccc3O)ccc21 [Compound 18] | 411
23 | Cc1nc2ccc(NC(=O)c3ccc4c(c3)nc(CN3CCC(c5cccc(OCc6ccc(Cl)cc6F)n5)CC3)n4C[C@@H]3CCO3)cc2s1 [Compound 95] | 62
24 | COC(=O)[C@@H]1CC(F)(F)CN1C(=O)CNC(=O)c1ccc2c(c1)nc(CN1CCC(c3cccc(OCc4ccc(Cl)cc4F)n3)CC1)n2C[C@@H]1CCO1 [Compound 64] | 151
25 | O=C(Nc1ccc2[nH]nc(C(F)(F)F)c2c1)c1ccc2c(c1)nc(CN1CCC(c3cccc(OCc4ccc(Cl)cc4F)n3)CC1)n2C[C@@H]1CCO1 [Compound 111] | 2.34
26 | O=C(NCC(=O)N1C2CCC(C2)[C@H]1C(=O)O)c1ccc2c(c1)nc(CN1CCC(c3cccc(OCc4ccc(Cl)cc4F)n3)CC1)n2C[C@@H]1CCO1 (stereo partly drawn) [Compound 59] | 7.2
27 | Cc1n[nH]c2c(C(F)(F)F)cc(C(=O)Nc3ccc4c(c3)nc(CN3CC=C(c5cccc6c5OC(C)(c5ccc(Cl)cc5F)O6)CC3)n4C[C@@H]3CCO3)cc12 (stereo partly drawn) [Compound 313] | 1.39

Results, then the molecule that gave them:

Row | EC50 [nM] | Structure (SMILES)
28 | 0.21 | Cc1n[nH]c2c(C)cc(NC(=O)c3ccc4c(c3)nc(CN3CC=C(c5cccc(OCc6ccc(C#N)cc6F)n5)CC3)n4C[C@@H]3CCO3)cc12 [Compound 181]
29 | 0.45 | Cc1cc(NC(=O)c2ccc3c(c2)nc(CN2CCC(c4cccc5c4OC(C)(c4ccc(Cl)cc4F)O5)CC2)n3C[C@@H]2CCO2)cc2c1NC(=O)C21CC1 (stereo partly drawn) [Compound 337]
30 | 0.79 | Cc1cc(C(=O)Nc2ccc3c(c2)nc(CN2CC=C(c4cccc(OCc5ccc(Cl)cc5F)n4)CC2)n3C[C@@H]2CCO2)cc2c(C(F)F)n[nH]c12 [Compound 217]
31 | 0.32 | Cc1cc(C(=O)Nc2ccc3c(c2)nc(CN2CC=C(c4cccc(OCc5ccc(Cl)cc5F)n4)CC2)n3C[C@@H]2CCO2)cc2c1NC(=O)C21CC1 [Compound 209]
32 | 0.95 | Cc1n[nH]c2c(C)cc(C(=O)Nc3ccc4nc(CN5CC=C(c6cccc(OCc7ccc(Cl)cc7F)n6)CC5)n(CC5CCO5)c4c3)cc12 (stereo not drawn) [Compound 279]
33 | 0.19 | Cc1n[nH]c2c(C)cc(C(=O)Nc3ccc4c(c3)nc(CN3CC=C(c5cccc6c5OC(C)(c5ccc(Cl)cc5F)O6)CC3)n4CC3CCO3)cc12 (stereo not drawn) [Compound 305]
34 | 0.81 | CC(C)c1n[nH]c2ccc(C(=O)Nc3ccc4c(c3)nc(CN3CCC(c5cccc6c5OC(C)(c5ccc(C#N)cc5F)O6)CC3)n4CC3CCO3)cc12 (stereo not drawn) [Compound 347]
35 | 0.48 | C=C(C)c1n[nH]c2ccc(C(=O)Nc3ccc4c(c3)nc(C3CC35CCN(c3cccc(OCc6ccc(Cl)cc6F)n3)CC5)n4CC3CCO3)cc12 (stereo not drawn) [Compound 243]
36 | 0.23 | Cc1n[nH]c2c(F)cc(NC(=O)c3ccc4c(c3)nc(CN3CC=C(c5cccc(OCc6ccc(C#N)cc6F)n5)CC3)n4C[C@@H]3CCO3)cc12 [Compound 177]
37 | 0.78 | Cc1cc2c(C#N)ccc(COc3cccc(C4=CCN(Cc5nc6cc(C(=O)Nc7ccc8[nH]nc(C)c8c7)ccc6n5C[C@@H]5CCO5)CC4)n3)c2o1 [Compound 355]
38 | 0.21 | Cc1cc(C(=O)Nc2ccc3c(c2)nc(CN2CCC(c4cccc5c4OC(C)(c4ccc(Cl)cc4F)O5)CC2)n3C[C@@H]2CCO2)cc2[nH]c(=O)[nH]c12 (stereo partly drawn) [Compound 345]
39 | 0.63 | Cc1n[nH]c2c(C(F)F)cc(NC(=O)c3ccc4c(c3)nc(CN3CCC(c5cccc(OCc6ccc(Cl)cc6F)n5)CC3)n4C[C@@H]3CCO3)cc12 [Compound 119]
